Laboratory results as given in ChEMBL document CHEMBL5360520, “Catalytic covalent inhibition of cyclooxygenase-1 by a biomimetic acyltransferase” (Bioorg Med Chem, 2022).
Activity calls are given as the source filed them. The rule behind the calls is not given here.

Legend:
[1] = target: T1, Prostaglandin G/H synthase 1 (Ovis aries) (UniProt P05979); test: Covalent inhibition of recombinant ovine COX-1 using arachidonic acid as substrate assessed as reduction in PGE2 production preincubated with compound followed by substrate addition and measured after 10 mins by LC-MS/MS analysis; conditions: time 70-310 min, TDE = time-dependent effect
T1 sequence (whole entry): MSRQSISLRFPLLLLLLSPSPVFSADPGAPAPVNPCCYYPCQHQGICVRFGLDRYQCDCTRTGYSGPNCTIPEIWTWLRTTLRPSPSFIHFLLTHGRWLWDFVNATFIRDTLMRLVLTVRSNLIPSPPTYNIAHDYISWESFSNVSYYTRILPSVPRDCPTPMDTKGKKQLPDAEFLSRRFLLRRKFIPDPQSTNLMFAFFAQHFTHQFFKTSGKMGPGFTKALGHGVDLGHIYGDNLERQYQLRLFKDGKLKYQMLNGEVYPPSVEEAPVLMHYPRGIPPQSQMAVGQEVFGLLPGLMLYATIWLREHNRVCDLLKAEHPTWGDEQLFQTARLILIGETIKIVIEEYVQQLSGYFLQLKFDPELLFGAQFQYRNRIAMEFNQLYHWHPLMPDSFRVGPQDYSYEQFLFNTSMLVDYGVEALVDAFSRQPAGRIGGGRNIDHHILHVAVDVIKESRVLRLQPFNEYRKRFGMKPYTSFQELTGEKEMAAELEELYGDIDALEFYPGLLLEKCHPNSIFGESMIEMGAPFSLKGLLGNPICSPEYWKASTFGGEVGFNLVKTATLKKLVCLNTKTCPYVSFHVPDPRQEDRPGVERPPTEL

[2] = target: T2, Prostaglandin G/H synthase 1 (Ovis aries, UniProt P05979); test: Non-covalent binding affinity to recombinant ovine COX1 using arachidonic acid as substrate assessed as binding constant preincubated with compound for 10 to 40 mins followed by substrate addition and measured after 10 mins by LC-MS/MS analysis
T2 sequence (P05979 whole entry): T1 sequence (whole entry)

[3] = target: T1, Prostaglandin G/H synthase 1 (Ovis aries); test: Covalent inhibition of recombinant ovine COX1 using arachidonic acid as substrate assessed as inhibition rate preincubated with compound for 10 to 40 mins followed by substrate addition and measured after 10 mins by LC-MS/MS analysis; conditions: time 20-50 min
[4] = target: T1, Prostaglandin G/H synthase 1 (Ovis aries); test: Inhibition of recombinant ovine COX1 using arachidonic acid as substrate assessed as Kinact/Ki ratio preincubated with compound for 10 to 40 mins followed by substrate addition and measured after 10 mins by LC-MS/MS analysis; conditions: time 20-50 min
A549 = test: Cytotoxicity against human A549 cells assessed as reduction in cell viability at 15 uM by MTT assay; type: toxicity, cell-based; conditions: a549, 15 µM
[5] = target: T1, Prostaglandin G/H synthase 1 (Ovis aries); test: Covalent inhibition of recombinant ovine COX1 using arachidonic acid as substrate assessed as reduction in PGE2 production at 10 uM preincubated with compound for 16 hrs followed by substrate addition for 10 mins in the presence of AcSNAC and measured after 16 hrs of dialysis by LC-MS/MS analysis; conditions: time 970.0 min
[6] = target: Prostaglandin G/H synthase 1 (Homo sapiens) (UniProt P23219); test: Covalent inhibition of COX1 in LPS-treated human A549 cells using arachidonic acid as substrate assessed as reduction in PGE2 production at 15 uM preincubated with compound for 24 hrs followed by washout and measured after 20 mins of substrate addition by LC-MS/MS analysis
[7] = target: T2, Prostaglandin G/H synthase 1; test: Covalent inhibition of recombinant ovine COX-1 using arachidonic acid as substrate assessed as reduction in PGE2 production preincubated with compound for 1 hrs followed by substrate addition and measured after 10 mins by LC-MS/MS analysis
[8] = target: T2, Prostaglandin G/H synthase 1; test: Covalent inhibition of recombinant ovine COX-1 using arachidonic acid as substrate assessed as reduction in PGE2 production preincubated with compound for 5 hrs followed by substrate addition and measured after 10 mins by LC-MS/MS analysis
[9] = target: T1, Prostaglandin G/H synthase 1 (Ovis aries); test: Covalent inhibition of recombinant ovine COX1 using arachidonic acid as substrate assessed as acetylation at Ser530 residues preincubated with compound followed by substrate addition and measured after 10 mins by LC-MS/MS analysis
[10] = target: Prostaglandin G/H synthase 1 (Homo sapiens) (UniProt P23219); test: Covalent inhibition of COX1 in LPS-treated human A549 cells using arachidonic acid as substrate assessed as reduction in PGE2 production at 40 uM measured every 24 hrs by LC-MS/MS analysis; conditions: time <= 48.0 hrs, TDE = time-dependent effect
[11] = target: Prostaglandin G/H synthase 1 (Homo sapiens) (UniProt P23219); test: Covalent inhibition of COX1 in LPS-treated human A549 cells using arachidonic acid as substrate assessed as reduction in PGE2 production at 40 uM preincubated with compound for 12 hrs followed by washout and measured after 20 mins of substrate addition by LC-MS/MS analysis
[12] = target: T1, Prostaglandin G/H synthase 1 (Ovis aries); test: Covalent inhibition of recombinant ovine COX1 using arachidonic acid as substrate assessed as reduction in PGE2 production at 40 uM preincubated with compound for […] followed by substrate addition and measured after 10 mins in the presence of AcSNAC by LC-MS/MS analysis; conditions: time 370.0 min
[13] = target: T1, Prostaglandin G/H synthase 1 (Ovis aries); test: Covalent inhibition of recombinant ovine COX1 using arachidonic acid as substrate assessed as reduction in PGE2 production preincubated with compound followed by substrate addition and measured after 10 mins by LC-MS/MS analysis relative to control
[14] = target: T1, Prostaglandin G/H synthase 1 (Ovis aries); test: Covalent inhibition of recombinant ovine COX1 using arachidonic acid as substrate assessed as residual activity preincubated with compound for 6 hrs followed by substrate addition for 10 mins and measured after 8 hrs of dialysis by LC-MS/MS analysis relative to control; conditions: time 370.0 min
[15] = target: T1, Prostaglandin G/H synthase 1 (Ovis aries); test: Covalent inhibition of recombinant ovine COX1 using arachidonic acid as substrate assessed as reduction in PGE2 production preincubated with compound for 6 hrs followed by substrate addition for 10 mins and measured after 8 hrs of dialysis by LC-MS/MS analysis; conditions: time 370.0 min

C#CCNC(=O)c1ccccc1SC(C)=O
inhibition [1]: Tde
Ki [2]: 15.2 µM
Kinact [3]: 2.5 10^-2/min
Ratio [4]: 2.4 10^-3/min/µM

CCCCC#CCNC(=O)c1ccccc1S
Activity (A549): Non-Toxic
inhibition [5]: Active
inhibition [6]: 60%

CC(=O)Oc1ccccc1C(=O)O [ASPIRIN]
inhibition [1]: Tde
Activity (A549): Non-Toxic

CCCCCCNC(=O)c1ccccc1SC(C)=O
IC50 [7]: 50 µM
IC50 [8]: 10 µM
Ki [2]: 33.9 µM
Kinact [3]: 2.1 10^-2/min
Ratio [4]: 0.65 10^-3/min/µM
inhibition [9]: Active
inhibition [10]: Tde
inhibition [11]: Active

CCCCCCNC(=O)c1ccccc1S
inhibition [12]: Active
inhibition [11]: Active

CCCCC#CCNC(=O)c1ccccc1SC
inhibition [13]: 97%
Activity [14]: 83%

CCCCC#CCNC(=O)c1ccccc1SC(C)=O
inhibition [1]: Tde
Ki [2]: 8.9 µM
Kinact [3]: 2.2 10^-2/min
Ratio [4]: 2.58 10^-3/min/µM
inhibition [15]: Active
inhibition [9]: Active
Activity (A549): Non-Toxic
